Assay results taken from patent publication US9920014B2, “Selective inhibition of bacterial topoisomerase I” (THE FLORIDA INTERNATIONAL BOARD OF TRUSTEES MODESTO A. …, priority 2013, dated 2018).
Where “and” joins values, the source holds several entries; their conditions need not be identical. Identical values can stand only once.

How the values were obtained:
[1] = target: T1, human DNA topoisomerase I (Homo sapiens, UniProt P11387); assay: Inhibition assay against human DNA topoisomerase I (plasmid relaxation, agarose gel); assay type: biochemical; conditions: for supercoiled DNA template prevented from relaxation by human DNA topoisomerase I: 50 μM compound; for IC50: 2 units enzyme, supercoiled pBAD-GFPuv, 30 min 37° C., read-out: IC50 hTopo I
T1 sequence (P11387 1-765): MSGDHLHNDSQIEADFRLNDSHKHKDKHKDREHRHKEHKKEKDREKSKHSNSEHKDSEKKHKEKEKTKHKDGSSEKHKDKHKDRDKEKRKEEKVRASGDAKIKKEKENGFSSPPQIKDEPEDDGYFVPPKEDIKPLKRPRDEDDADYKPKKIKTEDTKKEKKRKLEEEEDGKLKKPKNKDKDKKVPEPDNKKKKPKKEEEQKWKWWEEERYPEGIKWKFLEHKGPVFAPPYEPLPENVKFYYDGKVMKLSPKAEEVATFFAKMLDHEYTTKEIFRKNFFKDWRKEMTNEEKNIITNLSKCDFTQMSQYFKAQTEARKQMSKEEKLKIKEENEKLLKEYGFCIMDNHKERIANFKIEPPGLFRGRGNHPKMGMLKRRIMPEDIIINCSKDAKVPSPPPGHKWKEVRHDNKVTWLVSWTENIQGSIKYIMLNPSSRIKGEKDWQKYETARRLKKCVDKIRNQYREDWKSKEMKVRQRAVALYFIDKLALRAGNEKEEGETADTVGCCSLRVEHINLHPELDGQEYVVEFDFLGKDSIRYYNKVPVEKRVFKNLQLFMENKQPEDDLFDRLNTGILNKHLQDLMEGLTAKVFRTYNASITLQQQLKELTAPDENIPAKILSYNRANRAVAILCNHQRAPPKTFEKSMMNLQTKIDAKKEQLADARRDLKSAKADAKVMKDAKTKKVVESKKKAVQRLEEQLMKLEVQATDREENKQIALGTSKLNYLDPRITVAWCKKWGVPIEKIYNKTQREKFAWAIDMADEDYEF
Method: Inhibition Assays Against Human DNA Topoisomerase I:
The inhibition assays were used to determine the activities of the newly synthesized compounds against Human DNA topoisomerase I. The reaction mixture (25 μl) contained 20 mM Tris-HCl at pH 7.9, 50 mM KAc, 10 mM Mg(Ac)2, 1 mM DTT, 1 μg/ml BSA, 250 ng of the supercoiled plasmid pBAD-GFPuv, 2 units of Human DNA topoisomerase I, and one of the compounds at a final concentration that ranges from 5 to 50 μM. All components were assembled on ice and incubated for 30 minutes at 37° C. After the incubation, the reactions were terminated by extraction with an equal volume of phenol. The topological state of the DNA samples was analyzed with 1% agarose gel electrophoresis in 1×TAE buffer, pH 7.8. Following electrophoresis, the agarose gel was stained with Ethidium Bromide, destained, and photographed under UV light. The intensity of DNA topoisomers was determined using KODAK 1D Image Analysis Software. The percentage of (−) supercoiled DNA was calculated from a comparison of the intensity of the (−) supercoiled band with the total intensity of all DNA topoisomers. The IC50 was calculated as the amount of the drug for which 50% of the DNA was in a (−) supercoiled state.

dA60.dT60 duplex = assay: UV thermal denaturation of AT rich DNA duplex; assay type: binding; conditions: ligand 10 μM, DNA 1 μM/duplex, 10 mM sodium cacodylate, 0.1 mM EDTA, 100 mM NaCl, pH 7.0; for ΔTm (thermal stabilization): duplex alone 62.5° C.
Method: Nucleic acids were purchased from Integrated DNA Technologies (Coraville, Iowa). The concentration of the nucleic acid was determined using the extinction coefficient provided by the supplier. The DNA duplex was prepared by heating the dA60 and dT60 in equimolar ratio in buffer 10 mM sodium cacodylate, 0.1 mM EDTA and 100 mM NaCl at pH 7.0 at 95° C. for 15 minutes and then slowly allowing it to cool back to room temperature. After two days of incubation, the duplex formation was checked by UV thermal denaturation experiments. The stock solution was stored at 4° C. and diluted to desired concentrations as required.
Ultra Violet (UV) Thermal Denaturation Experiments:
All UV spectra were obtained on a 12 cell holder Cary 1E UV-Vis spectrophotometer equipped with temperature controller. Quartz cells with 1 cm path length were used for all the experiments. Spectrophotometer stability and wavelength alignment were checked prior to initiation of each thermal denaturation experiment. For all experiments, the samples were prepared by diluting a stock sample. The melting of DNA with and without the ligand was performed at a heating rate of 0.2° C./min. Samples were brought back to 20° C. after the experiment. All UV melting experiments were monitored at 260 nm. For the Tm determinations, derivatives were used. Data points were recorded every 1.0° C. The DNA concentration was 1 μM/duplex while the ligand concentration was 10 μM. All ligand solutions were prepared in dimethyl sulfoxide (DMSO) as concentrated stock solution (6-10 mM) and diluted to desired concentrations in buffer.
Bisbenzimidazoles are known to bind to the minor groove of AT rich DNA. The UV thermal denaturation experiments of the synthesized ligands were carried out with an AT rich DNA duplex. A 60 mer B-DNA duplex that was prepared by mixing equimolar amounts of a 60 mer homoadenine with a 60 mer homothymine polymer.

[2] = target: E. coli DNA topoisomerase I (Escherichia coli, UniProt P06612); assay: Inhibition assay against E. coli DNA topoisomerase I (plasmid relaxation, agarose gel); assay type: biochemical; conditions: 6 nM enzyme; for concentration needed to completely inhibit the activities of E. coli DNA topoisomerase I: gel titration (FIG. 3A, 3B); for IC50: supercoiled pBAD-GFPuv, 15 min 37° C., average of at least three determinations, read-out: IC50 ecTopo I
Method: Inhibition Assays Against E. coli DNA Topoisomerase I:
Inhibition assays were used to determine the activities of the newly synthesized compounds against E. coli DNA topoisomerase I. The reaction mixture (30 μl) contained 20 mM Tris-HCl at pH 7.9, 50 mM KAc, 10 mM Mg(Ac)2, 1 mM DTT, 1 μg/mL BSA, 150 ng of the supercoiled plasmid pBAD-GFPuv, 6 nM of E. coli topoisomerase I, and one of the compounds at a specified concentration that ranges from 0.5 to 45 μM. All components were assembled on ice and incubated for 15 min at 37° C. After the incubation, the reactions were terminated by extraction with an equal volume of phenol. The topological state of the DNA samples was analyzed with 1% agarose gel electrophoresis in 1×TAE buffer, pH 7.8. Following electrophoresis, the agarose gel was stained with Ethidium Bromide, destained, and photographed under UV light. The intensity of DNA topoisomers was determined using KODAK 1D Image Analysis Software. The percentage of (−) supercoiled DNA was calculated from a comparison of the intensity of the (−) supercoiled band with the total intensity of all DNA topoisomers. The IC50 was calculated as the amount of the drug for which 50% of the DNA was still in a (−) supercoiled state.

E. coli DNA topoisomerase I, sequence (P06612 whole entry): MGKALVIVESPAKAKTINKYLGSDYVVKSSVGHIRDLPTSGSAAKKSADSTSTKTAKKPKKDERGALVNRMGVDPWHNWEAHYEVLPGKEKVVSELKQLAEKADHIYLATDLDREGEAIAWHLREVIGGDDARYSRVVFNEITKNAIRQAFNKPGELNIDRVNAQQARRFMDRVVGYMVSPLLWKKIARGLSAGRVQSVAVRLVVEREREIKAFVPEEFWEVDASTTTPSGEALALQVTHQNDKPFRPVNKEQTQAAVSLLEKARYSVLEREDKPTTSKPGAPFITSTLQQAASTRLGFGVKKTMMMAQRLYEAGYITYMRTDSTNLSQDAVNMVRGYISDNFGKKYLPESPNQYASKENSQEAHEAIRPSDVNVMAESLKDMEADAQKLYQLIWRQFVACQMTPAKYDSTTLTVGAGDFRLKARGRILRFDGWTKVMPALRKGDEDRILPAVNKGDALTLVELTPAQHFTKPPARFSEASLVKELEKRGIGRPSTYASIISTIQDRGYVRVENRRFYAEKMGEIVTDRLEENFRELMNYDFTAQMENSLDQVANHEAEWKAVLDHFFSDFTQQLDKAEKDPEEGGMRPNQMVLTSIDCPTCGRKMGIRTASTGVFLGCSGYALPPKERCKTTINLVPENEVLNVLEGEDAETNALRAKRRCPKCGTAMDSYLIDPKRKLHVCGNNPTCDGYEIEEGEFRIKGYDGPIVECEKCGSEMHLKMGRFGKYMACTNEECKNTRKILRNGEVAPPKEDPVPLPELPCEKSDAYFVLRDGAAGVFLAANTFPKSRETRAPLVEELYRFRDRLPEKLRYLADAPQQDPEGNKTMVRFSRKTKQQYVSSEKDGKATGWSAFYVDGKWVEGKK

Row | Structure (SMILES) | supercoiled DNA template prevented from relaxation by human DNA topoisomerase I [1] | IC50 [1] [µM] | Tm (dA60.dT60 duplex) [°C] | ΔTm (thermal stabilization) (dA60.dT60 duplex) | concentration needed to completely inhibit the activities of E. coli DNA topoisomerase I [2] | IC50 [2] [µM] | ΔTm (thermal stabilization) (dA60.dT60 duplex; listed as Hoechst 33242) [°C]
1 | CN1CCN(c2ccc3[nH]c(-c4ccc5[nH]c(-c6ccc(O)cc6)nc5c4)nc3c2)CC1 [Hoechst 33258, reference compound] | about 70% | 22.9 ± 1.55 | 87.1 | ~24 °C and 24.6 °C | approximately 20 μM | 19.5 ± 1.32 | –
2 | C#CCCCCOc1ccc(-c2nc3ccc(-c4nc5ccc(N6CCN(C)CC6)cc5[nH]4)cc3[nH]2)cc1 [DPA 152, 2′-(4-(hex-5-ynyloxy)phenyl)-6-(4-methylpiperazin-1-yl)-1H,3′H-2,5′-bibenzo[d]imidazole] | – | > 50 | 83.4 | 20.9 °C | – | 4.57 ± 0.81 | –
3 | C#CCOc1ccc(-c2nc3ccc(-c4nc5ccc(N6CCN(C)CC6)cc5[nH]4)cc3[nH]2)cc1 [DPA 151, 6-(4-methylpiperazin-1-yl)-2′-(4-(prop-2-ynyloxy)phenyl)-1H,3′H-2,5′-bibenzo[d]imidazole] | about 70% | 25.4 ± 2.2 | 85.4 | 22.9 °C and 23.9 °C | approximately 5 μM | 5.5 ± 0.5 | –
4 | C#CCCCCCCCCCOc1ccc(-c2nc3ccc(-c4nc5ccc(N6CCN(C)CC6)cc5[nH]4)cc3[nH]2)cc1 [DPA 153, 6-(4-methylpiperazin-1-yl)-2′-(4-(undec-10-ynyloxy)phenyl)-1H,3′H-2,5′-bibenzo[d]imidazole] | – | > 50 | 70.5 | 8 °C | – | 2.47 ± 0.06 | –
5 | C#CCOCCCCOc1ccc(-c2nc3ccc(-c4nc5ccc(N6CCN(C)CC6)cc5[nH]4)cc3[nH]2)cc1 [DPA 154, 6-(4-methylpiperazin-1-yl)-2′-(4-(4-(prop-2-ynyloxy)butoxy)phenyl)-1H,3′H-2,5′-bibenzo[d]imidazole] | – | > 50 | 85.9 | 23.4 °C | – | 6.63 ± 0.47 | –
6 | CCOc1ccc(-c2nc3ccc(-c4nc5ccc(N6CCN(C)CC6)cc5[nH]4)cc3[nH]2)cc1 [Hoechst 33342, reference compound] | – | > 50 | 86.6 | ~24 °C | – | 29.8 ± 2.75 | 24.1
